Source: patent US11135214B2, “Methods for enhancing the bio availability and exposure of a voltage-gated potassium channel opener” (priority 2018, dated 2021)
Where “and” joins values, the source holds several entries; their conditions need not be identical. Identical values can stand only once. Like-named read-outs stand apart in the source and are kept apart here.

Experiment: Food effect study, oral capsule, plasma PK in non-human primate
Type: in vivo, Cynomolgus monkeys
Settings: for AUC(0-inf): read-out: AUCinfobs
Description: The following study was conducted to determine the effect of food when Compound A is orally administered to a non-human primate.
Three (n=3) Cynomolgus monkeys of Vietnamese origin were used in this study. At the time of initial dose administration, the monkeys weighed 4.7 to 5.1 kg and were about 4.5 years of age.
A certified primate diet (Teklad® Certified Diet 2050C) was fed during the study. For Group 1, the three monkeys were fasted overnight with food returned 4 hours post-dose. For Group 2, the same three monkeys were fasted overnight and offered food about 1 hour prior to dosing and food was returned at 4 hours post-dose. The following Table 1 gives the food consumption for Group 2:
The oral dosage units consisted of about 3 mg/kg of Compound A in a capsule. The capsules were filled the morning of the dose administration and kept at room temperature until dosing. The remaining capsules were placed into the −20° C. storage.
The capsules were placed as far back in the animal's mouth as possible using a pill gun or a modified gavage tube. Approximately 10 mL of water was administered via syringe to ensure complete delivery of the intended dose. Each animal received 1 capsule per dose. The same animals were dosed twice with a 96 hour washout period between doses.
Group 1: All animals were weighed the afternoon prior to dose administration. Animal #2 struggled with dosing. After several attempts, the animal was given a short break and finally dosed successfully.
Group 2: All animals were weighed the morning of dose administration. All animals were dosed without incident.
Whole blood (˜2.0 mL) was collected using syringe and needle from cephalic or saphenous veins and transferred into vacutainer tubes containing K2EDTA and kept on wet ice until processed for plasma. Blood samples were collected at time of dosing (0.0 hours, time zero) and at 0.5, 1, 2, 4, 8, 12, 24 and 48 hours post-dose.
The whole blood samples were placed in a K2EDTA tube and centrifuged at 3200 RPM for 10 minutes at approximately 5° C. Plasma samples were divided into 2 aliquots and each aliquot directly transferred to appropriately labeled, individual tubes containing study number, collection time point, animal ID number, and sample description. One aliquot was placed into storage at −20±5° C. until shipment for analysis. The other aliquot was retained at −20±5° C. Red blood cells were disposed.
All samples were processed per standard protocol for bioanalytical analysis.

[1] = Cynomolgus (Vietnamese origin), cynomolgus monkey, plasma, po, 3 mg/kg, Group 2 (fed), 3 mg/kg capsule, individual subjects
[2] = Cynomolgus, Vietnamese origin, cynomolgus monkey, plasma, po, 3 mg/kg, Group 1 (fasted), 3 mg/kg capsule, Mean
[3] = Group 1 (fasted), 3 mg/kg capsule, individual subjects, 3 mg/kg
[4] = Group 2 (fed), 3 mg/kg capsule, individual subjects, 3 mg/kg
[5] = cynomolgus monkey, plasma, po, 3 mg/kg, Group 2 (fed), 3 mg/kg capsule, Mean

SMILES: Cc1cc(N2CCc3cc(F)ccc3C2)cc(C)c1NC(=O)CC(C)(C)C [Compound A, N-[4-(6-fluoro-3,4-dihydro-1H-isoquinolin-2-yl)-2,6-dimethylphenyl]-3,3-dimethylbutanamide]
- Cmax (Cynomolgus (Vietnamese origin), cynomolgus monkey, plasma, po, 3 mg/kg, Group 2 (fed), 3 mg/kg capsule, Mean, read-out: Cmax): 65.4 ng/mL
- Tmax (Cynomolgus (Vietnamese origin), cynomolgus monkey, plasma, po, 3 mg/kg, Group 2 (fed), 3 mg/kg capsule, Mean, read-out: Tmax): 8 h
- AUC(0-t) [1]: 1120 ng·h/mL
- AUC(0-inf) [1]: 1180 ng·h/mL
- Cmax (Cynomolgus (Vietnamese origin), cynomolgus monkey, plasma, po, 3 mg/kg, Group 2 (fed), 3 mg/kg capsule, individual subjects, read-out: Cmax): 50.4 ng/mL
- AUC(0-t) [2]: 1490 ng·h/mL
- AUC(0-inf) [2]: 913 ng·h/mL
- Cmax (Cynomolgus, Vietnamese origin, cynomolgus monkey, plasma, po, 3 mg/kg, Group 1 (fasted), 3 mg/kg capsule, Mean, read-out: Cmax): 55.7 ng/mL
- Tmax (Cynomolgus, Vietnamese origin, cynomolgus monkey, plasma, po, 3 mg/kg, Group 1 (fasted), 3 mg/kg capsule, Mean, read-out: Tmax): 10.7 h
- Cmax (Cynomolgus, Vietnamese origin, cynomolgus monkey, plasma, po, 3 mg/kg, Group 1 (fasted), 3 mg/kg capsule, individual subjects, read-out: Cmax): 75.1 ng/mL
- Tmax (Cynomolgus, Vietnamese origin, cynomolgus monkey, plasma, po, 3 mg/kg, Group 1 (fasted), 3 mg/kg capsule, individual subjects, read-out: Tmax): 12 h
- t½λz (Group 1 (fasted), 3 mg/kg capsule, Mean): 9.7 h
- t½λz (Group 1 (fasted), 3 mg/kg capsule, individual subjects): 9.7 h
- AUClast [3]: 1940 ng·h/mL and 1650 ng·h/mL and 869 ng·h/mL
- Cmax [3]: 53.7 ng/mL and 38.4 ng/mL
- t½λz (Group 2 (fed), 3 mg/kg capsule, Mean): 10.1 h
- t½λz (Group 2 (fed), 3 mg/kg capsule, individual subjects): 10.1 h
- AUClast [4]: 2010 ng·h/mL and 1790 ng·h/mL
- Cmax [4]: 67.5 ng/mL and 78.2 ng/mL
- Tmax [4]: 4 h
- concentration at 0 h (cynomolgus monkey, plasma, oral, 3 mg/kg, Group 1 (fasted), 3 mg/kg, 0 h, N=3, read-out: Mean plasma concentration): 0 ng/mL
- concentration at 0.5 h (cynomolgus monkey, plasma, oral, 3 mg/kg, Group 1 (fasted), 3 mg/kg, 0.5 h, N=3, read-out: Mean plasma concentration): 0 ng/mL
- concentration at 1 h (cynomolgus monkey, plasma, oral, 3 mg/kg, Group 1 (fasted), 3 mg/kg, 1 h, N=3, read-out: Mean plasma concentration): 6.89 ng/mL
- concentration at 2 h (cynomolgus monkey, plasma, oral, 3 mg/kg, Group 1 (fasted), 3 mg/kg, 2 h, N=3): 15.3 ng/mL
- concentration at 4 h (cynomolgus monkey, plasma, oral, 3 mg/kg, Group 1 (fasted), 3 mg/kg, 4 h, N=3, read-out: Mean plasma concentration): 16.6 ng/mL
- concentration at 8 h (cynomolgus monkey, plasma, oral, 3 mg/kg, Group 1 (fasted), 3 mg/kg, 8 h, N=3, read-out: Mean plasma concentration): 49.9 ng/mL
- concentration at 12 h (cynomolgus monkey, plasma, oral, 3 mg/kg, Group 1 (fasted), 3 mg/kg, 12 h, N=3, read-out: Mean plasma concentration): 55.7 ng/mL
- concentration at 24 h (cynomolgus monkey, plasma, oral, 3 mg/kg, Group 1 (fasted), 3 mg/kg, 24 h, N=3): 42.5 ng/mL
- concentration at 48 h (cynomolgus monkey, plasma, oral, 3 mg/kg, Group 1 (fasted), 3 mg/kg, 48 h, N=3): 8.94 ng/mL
- concentration at 0 h (cynomolgus monkey, plasma, oral, 3 mg/kg, Group 2 (fed), 3 mg/kg, 0 h, N=3, read-out: Mean plasma concentration): 0 ng/mL
- concentration at 0.5 h (cynomolgus monkey, plasma, oral, 3 mg/kg, Group 2 (fed), 3 mg/kg, 0.5 h, N=3, read-out: Mean plasma concentration): 0.35 ng/mL
- concentration at 1 h (cynomolgus monkey, plasma, oral, 3 mg/kg, Group 2 (fed), 3 mg/kg, 1 h, N=3, read-out: Mean plasma concentration): 1.25 ng/mL
- concentration at 2 h (cynomolgus monkey, plasma, oral, 3 mg/kg, Group 2 (fed), 3 mg/kg, 2 h, N=3): 7.73 ng/mL
- concentration at 4 h (cynomolgus monkey, plasma, oral, 3 mg/kg, Group 2 (fed), 3 mg/kg, 4 h, N=3, read-out: Mean plasma concentration): 44.3 ng/mL
- concentration at 8 h (cynomolgus monkey, plasma, oral, 3 mg/kg, Group 2 (fed), 3 mg/kg, 8 h, N=3, read-out: Mean plasma concentration): 55.4 ng/mL
- concentration at 12 h (cynomolgus monkey, plasma, oral, 3 mg/kg, Group 2 (fed), 3 mg/kg, 12 h, N=3, read-out: Mean plasma concentration): 52.8 ng/mL
- concentration at 24 h (cynomolgus monkey, plasma, oral, 3 mg/kg, Group 2 (fed), 3 mg/kg, 24 h, N=3): 45 ng/mL
- concentration at 48 h (cynomolgus monkey, plasma, oral, 3 mg/kg, Group 2 (fed), 3 mg/kg, 48 h, N=3): 11.6 ng/mL
- concentration at 0 h (cynomolgus monkey, plasma, oral, 3 mg/kg, fed, 3 mg/kg capsule, plasma, 0 h, individual animals, read-out: Concentration): 0 ng/mL
- concentration at 1 h (cynomolgus monkey, plasma, oral, 3 mg/kg, fed, 3 mg/kg capsule, plasma, 1 h, individual animals, read-out: Concentration): 1.05 ng/mL
- concentration at 8 h (cynomolgus monkey, plasma, oral, 3 mg/kg, fed, 3 mg/kg capsule, plasma, 8 h, individual animals, read-out: Concentration): 50.4 ng/mL
- concentration at 12 h (cynomolgus monkey, plasma, oral, 3 mg/kg, fed, 3 mg/kg capsule, plasma, 12 h, individual animals, read-out: Concentration): 48.8 ng/mL
- AUC(0-inf) (cynomolgus monkey, plasma, po, 3 mg/kg, Group 1 (fasted), 3 mg/kg capsule, individual subjects): 913 ng·h/mL
- AUC(0-t) [5]: 1640 ng·h/mL
- AUC(0-inf) [5]: 1180 ng·h/mL
- concentration at 0 h (cynomolgus monkey, plasma, po, 3 mg/kg, fasted, 3 mg/kg oral, plasma, 0 h, individual animals, read-out: Concentration): 0 ng/mL
- concentration at 0.5 h (cynomolgus monkey, plasma, po, 3 mg/kg, fasted, 3 mg/kg oral, plasma, 0.5 h, individual animals, read-out: Concentration): 0 ng/mL
- concentration at 4 h (cynomolgus monkey, plasma, po, 3 mg/kg, fasted, 3 mg/kg oral, plasma, 4 h, individual animals, read-out: Concentration): 12.6 ng/mL
- concentration at 8 h (cynomolgus monkey, plasma, po, 3 mg/kg, fasted, 3 mg/kg oral, plasma, 8 h, individual animals, read-out: Concentration): 38.4 ng/mL
- concentration at 12 h (cynomolgus monkey, plasma, po, 3 mg/kg, fasted, 3 mg/kg oral, plasma, 12 h, individual animals, read-out: Concentration): 38.3 ng/mL
- Concentration (fasted, 3 mg/kg oral, plasma, 0 h, individual animals): 0 ng/mL
- Concentration (fasted, 3 mg/kg oral, plasma, 0.5 h, individual animals): 0 ng/mL
- Concentration (fasted, 3 mg/kg oral, plasma, 1 h, individual animals, 3 mg/kg): 15.6 ng/mL and 5.07 ng/mL and 0 ng/mL
- Concentration (fasted, 3 mg/kg oral, plasma, 2 h, individual animals, 3 mg/kg): 6.00 ng/mL and 23.5 ng/mL and 16.4 ng/mL
- Concentration (fasted, 3 mg/kg oral, plasma, 4 h, individual animals, 3 mg/kg): 19.2 ng/mL and 18.1 ng/mL
- Concentration (fasted, 3 mg/kg oral, plasma, 8 h, individual animals, 3 mg/kg): 63.1 ng/mL and 48.1 ng/mL
- Concentration (fasted, 3 mg/kg oral, plasma, 12 h, individual animals, 3 mg/kg): 75.1 ng/mL and 53.7 ng/mL
- Concentration (fasted, 3 mg/kg oral, plasma, 24 h, individual animals, 3 mg/kg): 22.5 ng/mL and 53.2 ng/mL and 51.8 ng/mL
- Concentration (fasted, 3 mg/kg oral, plasma, 48 h, individual animals, 3 mg/kg): 3.13 ng/mL and 12.5 ng/mL and 11.2 ng/mL
- Concentration (fed, 3 mg/kg capsule, plasma, 0 h, individual animals): 0 ng/mL
- Concentration (fed, 3 mg/kg capsule, plasma, 0.5 h, individual animals, 3 mg/kg): 1.05 ng/mL and 0 ng/mL (2×)
- Concentration (fed, 3 mg/kg capsule, plasma, 1 h, individual animals, 3 mg/kg): 1.21 ng/mL and 1.48 ng/mL
- Concentration (fed, 3 mg/kg capsule, plasma, 2 h, individual animals, 3 mg/kg): 11.8 ng/mL and 0 ng/mL and 11.4 ng/mL
- Concentration (fed, 3 mg/kg capsule, plasma, 4 h, individual animals, 3 mg/kg): 34.8 ng/mL and 19.9 ng/mL and 78.2 ng/mL
- Concentration (fed, 3 mg/kg capsule, plasma, 8 h, individual animals, 3 mg/kg): 52.2 ng/mL and 63.7 ng/mL
- Concentration (fed, 3 mg/kg capsule, plasma, 12 h, individual animals, 3 mg/kg): 67.5 ng/mL and 42.2 ng/mL
- Concentration (fed, 3 mg/kg capsule, plasma, 24 h, individual animals, 3 mg/kg): 24.2 ng/mL and 61.9 ng/mL and 48.8 ng/mL
- Concentration (fed, 3 mg/kg capsule, plasma, 48 h, individual animals, 3 mg/kg): 4.26 ng/mL and 16.9 ng/mL and 13.5 ng/mL
